Reference: US20260116910A1, “POLYCYCLIC COMPOUNDS AND METHODS THEREOF” (HEPAITECH (BEIJING) BIOPHARMA TECHNOLOGY CO., LTD., priority 2021, published 2026)

Legend:
human FXR (NR1H4) = biological target: T1, human FXR (NR1H4) (Homo sapiens, UniProt Q96RI1); experiment: Human FXR (NR1H4) agonist assessment, FXRE-NanoLuc reporter in HEK293T cells; assay type: cell-based; conditions: FXR activation, HEK293T FXRE-NanoLuc reporter, 24 hr; for EC50: read-out: EC50
T1 sequence (Q96RI1 1-476 isoform Q96RI1-1): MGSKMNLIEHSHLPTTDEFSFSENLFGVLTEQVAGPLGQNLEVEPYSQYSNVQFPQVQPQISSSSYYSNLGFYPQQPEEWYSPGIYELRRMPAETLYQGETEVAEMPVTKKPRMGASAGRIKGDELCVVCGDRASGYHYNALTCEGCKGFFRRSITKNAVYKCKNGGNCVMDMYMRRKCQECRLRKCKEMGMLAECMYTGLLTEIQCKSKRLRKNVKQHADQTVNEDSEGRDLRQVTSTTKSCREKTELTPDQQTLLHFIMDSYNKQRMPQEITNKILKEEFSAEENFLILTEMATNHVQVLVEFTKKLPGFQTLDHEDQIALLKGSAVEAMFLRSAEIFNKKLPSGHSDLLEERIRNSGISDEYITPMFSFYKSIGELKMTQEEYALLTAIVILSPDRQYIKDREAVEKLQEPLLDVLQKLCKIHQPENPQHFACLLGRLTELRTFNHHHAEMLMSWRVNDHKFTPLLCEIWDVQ
Procedure: As those skilled in the art appreciate, various technologies are available for assessment of FXR activation in accordance with the present disclosure. […] Human FXR (NR1H4) agonist assessment (see, e.g., Yu et al. eLife 2019; 8: e48431): HEK293T cells stably expressing human FXR and containing FXR response element (FXRE)-NanoLuc reporter were cultured in DMEM medium supplemented with 10% FBS and 1% PS, at 37° C. in a humidified atmosphere with 5% CO2. Cells were detached by centrifuging (1000 rpm, 3 min). The pellet was re-suspended in medium, and cell density was adjusted to about 1×10^6 cells/mL. 100 μL suspension was seeded to each well of a white-walled, clear-bottom 96-well microplates (cell plate). Cells in microplates were cultured overnight.
In the following day, cells were grown to higher than 95% density in each well. Culture medium was replaced, and compounds were added to the wells. 0.01% DMSO (v/v) served as negative control. Plates were incubated at 37° C. in 5% CO2 for 24 hr.
In the following day, a 10 μL aliquot of cell culture medium was removed from each well and combined with 40 μL culture medium plus […] assay buffer (containing 20 mM of the luciferase substrate coelenterazine). After 5 min incubation, luminescence was measured using an EnVision plate reader (PerkinElmer).
In some embodiments, gradient diluted solutions of several concentrations were used to treat cells and corresponding responses were used to fit sigmoid function and to derive EC50 in Origin.

MRGPRX4 = MRGPRX4 (Homo sapiens, UniProt Q96LA9); experiment: MRGPRX4 activation, Fluo-8 Ca2+ FLIPR assay in HEK293T cells stably expressing MRGPRX4; assay type: cell-based
MRGPRX4, sequence (Q96LA9 whole entry): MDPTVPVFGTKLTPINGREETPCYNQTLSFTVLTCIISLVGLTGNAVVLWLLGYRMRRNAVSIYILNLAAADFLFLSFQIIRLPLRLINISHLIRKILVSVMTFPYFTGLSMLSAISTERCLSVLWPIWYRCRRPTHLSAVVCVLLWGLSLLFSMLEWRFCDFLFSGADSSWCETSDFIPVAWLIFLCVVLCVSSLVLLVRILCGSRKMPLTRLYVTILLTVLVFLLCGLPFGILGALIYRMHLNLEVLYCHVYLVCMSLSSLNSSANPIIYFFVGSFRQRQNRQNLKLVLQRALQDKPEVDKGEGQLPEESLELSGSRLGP
Procedure: In some embodiments, cells were cultured in poly-D-Lys coated blacked walled, clear-bottom 96-well microplates. HEK293T cells stably expressing MRGPRX4 were cultured in DMEM medium supplemented with 10% FBS and 1% PS, at 37° C. in a humidified atmosphere with 5% CO2. Cells were detached by centrifuging (1000 rpm, 3 min). The pellet was re-suspended in medium, and cell density was adjusted to about 1×10^6 cells/mL. 100 μL suspension was seeded to each well of a microplates (cell plate). Cells in the microplates were cultured overnight. In the following day, cells were grown to higher than 95% density in each well.
Ca^2+ fluorescent dye loading: Fluo-8 AM (Screen Quest Fluo-8 AM Calcium Assay Kit, AAT Bioquest, cat. #: 21083) was diluted in HHBS buffer and adjusted to 2 μM (dye buffer). Medium in each well was changed into 50 μL dye buffer carefully. After incubation for 40-60 min under room temperature, the dye buffer was changed into 50 μL HHBS buffer.
The concentration of solution should be determined according to the protocol settings and experimental needs (e.g., Log[M]=−4, −5, −6, −7, −8, and −9). Prepare 2× serial dilution series of compounds (at least 75 μL per well).
A fluorescent signal baseline was measured using FLIPR®Tetra for 30 s. Then 50 μL of the chemical solution would be added to the cell plate. The fluorescent signal would be measured for another 150 s.
Activity of each compound was calculated by the fluorescence change (dF/F0). Curves were fitted to obtain EC50 values. In some embodiments, at least 3 repeats were performed to obtain the average values. For assessment of a compound, gradient diluted solutions of different concentrations were used to treat cells and corresponding responses were used to fit sigmoid function and to derive EC50 in Origin. In some embodiments, assessed concentrations were or included about 10^−4, 10^−4.5, 10^−5, 10^−5.5, 10^−6, 10^−6.5, 10^−7, 10^−8, and/or 10^−9 M; for example, in many instances, assessed concentrations included about 10^−5, 10^−6, 10^−7 and 10^−8 M. In some embodiments, assessed concentrations were about 10^−4, 10^−4.5, 10^−5, 10^−5.5, 10^−6, 10^−7, 10^−8, and 10^−9 M. In some embodiments, assessed concentrations were about 10^−4, 10^−5, 10^−6, 10^−7, 10^−8, and 10^−9 M. In some embodiments, assessed concentrations were about 10^−4, 10^−4.5, 10^−5, 10^−5.5, 10^−6, and 10^−7 M. In some embodiments, assessed concentrations were about 2000000, 1000000, 500000, 250000, 125000, 62500, 31250, 15625, 7813, 3906 nM. […] In some embodiments, assessed concentrations were about 30000, 10000, 3333, 1111, 370, 123, 41, 14, 4.6, 1.5 nM.

CC[C@H]1[C@@H](O)[C@@H]2[C@H](CC[C@]3(C)[C@@H]([C@H](C)CCc4nnc(NS(=O)(=O)c5ccc6c(c5)OCO6)[nH]4)CC[C@@H]23)[C@@]2(C)CCCC[C@@H]12 [15-3]
Efficacy (maximum measured induction of NanoLuc, normalized to CDCA set as 100%) (human FXR (NR1H4)): C (100%<efficacy <=300%) | EC50 (human FXR (NR1H4)): 1 to 10 µM

CC[C@H]1[C@@H](O)[C@@H]2[C@H](CC[C@]3(C)[C@@H]([C@H](C)CCNC(=O)NS(=O)(=O)C[C@]45CCC(CC4=O)C5(C)C)CC[C@@H]23)[C@@]2(C)CCCC[C@@H]12 [5-27]
Efficacy (maximum measured induction of NanoLuc, normalized to CDCA set as 100%) (human FXR (NR1H4)): A (efficacy >400%) | EC50 (human FXR (NR1H4)): < 1 µM

CC[C@H]1[C@@H](O)[C@@H]2[C@H](CC[C@]3(C)[C@@H]([C@H](C)CCNC(=O)NS(=O)(=O)c4ccc(C(C)(C)C(=O)OC)cc4)CC[C@@H]23)[C@@]2(C)CCCC[C@@H]12 [5-9]
Efficacy (maximum measured induction of NanoLuc, normalized to CDCA set as 100%) (human FXR (NR1H4)): B (300%<efficacy <=400%) | EC50 (human FXR (NR1H4)): < 1 µM

CC[C@H]1[C@@H](O)[C@@H]2[C@H](CC[C@]3(C)[C@@H]([C@H](C)CCNC(=N)N)CC[C@@H]23)[C@@]2(C)CCCC[C@@H]12 [17-1]
Efficacy (maximum measured induction of NanoLuc, normalized to CDCA set as 100%) (human FXR (NR1H4)): A (efficacy >400%) | EC50 (human FXR (NR1H4)): < 1 µM

C[C@H](CCC(=O)O)[C@H]1CC[C@H]2[C@@H]3CC[C@@H]4C[C@H](O)CC[C@]4(C)[C@H]3C[C@H](O)[C@]12C [DCA, deoxycholic acid, reference compound]
Activation (%) (MRGPRX4; E3-8-1, 5 nM, n = 1): 1.93% | Activation (%) (MRGPRX4; E3-8-1, 5 nM, n = 2): 0.08% | Activation (%) (MRGPRX4; E3-8-1, 15 nM, n = 1): 1.01% | Activation (%) (MRGPRX4; E3-8-1, 15 nM, n = 2): 0.39% | Activation (%) (MRGPRX4; E3-8-1, 46 nM, n = 1): 2.24% | Activation (%) (MRGPRX4; E3-8-1, 46 nM, n = 2): 0.70% | Activation (%) (MRGPRX4; E3-8-1, 412 nM, n = 1): 3.48% | Activation (%) (MRGPRX4; E3-8-1, 412 nM, n = 2): 0.70% | Activation (%) (MRGPRX4; E3-8-1, 1235 nM, n = 1): 14.9% | Activation (%) (MRGPRX4; E3-8-1, 1235 nM, n = 2): 6.58% | Activation (%) (MRGPRX4; E3-8-1, 3704 nM, n = 1): 37.5% | Activation (%) (MRGPRX4; E3-8-1, 3704 nM, n = 2): 30.1% | Activation (%) (MRGPRX4; E3-8-1, 11111 nM, n = 1): 73.8% | Activation (%) (MRGPRX4; E3-8-1, 11111 nM, n = 2): 56.4% | Activation (%) (MRGPRX4; E3-8-1, 33333 nM, n = 1): 95.1% | Activation (%) (MRGPRX4; E3-8-1, 33333 nM, n = 2): 98.5% | Activation (%) (MRGPRX4; E3-8-1, 100000 nM, n = 1): 96.4% | Activation (%) (MRGPRX4; E3-8-1, 100000 nM, n = 2): 107.2%

C[C@H](CCC(=O)O)[C@H]1CC[C@H]2[C@@H]3[C@H](O)C[C@@H]4C[C@H](O)CC[C@]4(C)[C@H]3CC[C@]12C [CDCA, chenodeoxycholic acid, reference compound]
MRGPRX4 activation, fluorescence change (dF/F0), Average (MRGPRX4; Conc. (Log[M]) −4): 1.098 | MRGPRX4 activation, fluorescence change (dF/F0), Average (MRGPRX4; Conc. (Log[M]) −4.5): 0.586 | MRGPRX4 activation, fluorescence change (dF/F0), Average (MRGPRX4; Conc. (Log[M]) −5): 0.082 | MRGPRX4 activation, fluorescence change (dF/F0), Average (MRGPRX4; Conc. (Log[M]) −5.5): −0.017 | MRGPRX4 activation, fluorescence change (dF/F0), Average (MRGPRX4; Conc. (Log[M]) −6): −0.057 | MRGPRX4 activation, fluorescence change (dF/F0), Average (MRGPRX4; Conc. (Log[M]) −7): −0.044 | MRGPRX4 activation, fluorescence change (dF/F0), Average (MRGPRX4; Conc. (Log[M]) −8): −0.049 | MRGPRX4 activation, fluorescence change (dF/F0), Average (MRGPRX4; Conc. (Log[M]) −9): −0.070
